Source: patent publication US5164411A, “Pyrethroid compositions” (priority 1991, dated 1992)
≈ marks a conversion by molar mass, not a printed value.

Tests used:
[1] = test system: Mexican bean beetle (Epilachna varivestis); test: Foliar evaluation, Mexican bean beetle (MBB); type: in vivo; settings: for LC50: Epilachna varivestis, foliar, pinto beans, mortality at 48 hours
Protocol: (§1) Cypermethrin and sigma-cypermethrin were tested by foliar application at various concentrations in aqueous solutions containing 9.75% acetone and 0.25% octylphenoxypolyethoxyethanol. Insect species utilized included the cabbage looper (Trichoplusia ni), southern armyworm (Spodoptera eridania), Mexican bean beetle (Epilachna varivestis), tobacco budworm (Heliothis virescens), and corn earworm (Heliothis zea).
(§2) For all insects, pinto beans (Phaseolus vulgaris) plants were treated with the test solutions. The test solutions were applied with a sprayer to the upper and lower surfaces of the plant leaves to runoff. The plants were then allowed to dry and were severed at the base of the stem before being placed in cups. Ten second instar individuals of the appropriate insect species, except the tobacco budworm and corn earworm, were placed in each cup and the cup covered. Tests with the tobacco budworm and corn earworm used four replicates with each replicate containing five second instar insects. In all tests, mortality was read 48 hours later. The sigma-cypermethrin used in the foliar evaluations was the product of Example 2.

[2] = test system: tobacco budworm (Heliothis virescens); test: Foliar evaluation, tobacco budworm (TBW); type: in vivo; settings: for LC50: Heliothis virescens, foliar, pinto beans, mortality at 48 hours
Protocol: as §1, §2

[3] = test system: alfalfa weevil (Hypera postica); test: Field trials, control of alfalfa weevil; type: in vivo
Protocol: Field trials were conducted in Louisiana, North Carolina, Texas, Kentucky, Tennessee, and Illinois to evaluate the control of alfalfa weevil (Hypera postica). Small plot trials were used in a randomized block design with four replications per treatment. Applications were made with CO2 backpack sprayers. Results were obtained at 3, 7, and 14 days after treatment (DAT) and were converted to percent control based on the untreated check.

rats [4] = test: Multigeneration study; type: in vivo
Protocol: Multigeneration studies were conducted in compliance with EPA guideline 83-4 and provide information on reproductive parameters as well as neonatal morbidity and mortality for multiple generations. Wistar rats were fed diets, throughout the study, containing 0, 50, 150, and 750 ppm of cypermethrin (the top dose level was 1000 ppm for the first 12 weeks, but was lowered to 750 ppm for the remainder of the study owing to toxicity). Similarly, Sprague-Dawley rats were fed diets containing 0, 7.5, 25, 100, 375, and 750 ppm of sigma-cypermethrin. (Again, the rates are lower for sigma-cypermethrin, because it was expected to be more toxic.) The cypermethrin isomer content (weight %) of the sigma-cypermethrin technical product used in this study was total isomers--89.1%, S-isomers--82%, cis/trans ratio--51/49. […] Body weights and food consumption were recorded at regular intervals.
The breeding of parental and subsequent generations in each study was initiated with 30 females. In both studies appropriate dietary concentrations of test material were provided during cohabitation. Exposure of the parental males of each generation continued until a scheduled sacrifice following completion of the cohabitation periods, while exposure of parental females continued through to weaning of pups. Pups were weaned at postnatal day 28 in both studies.

cabbage looper = test: Field trials on lettuce, control of cabbage looper; type: in vivo, Trichoplusia ni
Excerpt: Field trials conducted on lettuce in California for evaluation of the control of cabbage looper consisted of a randomized complete block design of four replications per treatment. Applications were made to small plots with CO2 backpack sprayer using a minimum of 10 gallons per acre. Results were converted to percent control based on untreated check plots.

[5] = Ninety-six-hour flow-through acute toxicity, rainbow trout; type: in vivo, Oncorhynchus mykiss; settings: 96 h flow-through, well water
Protocol: Ninety-six-hour flow-through acute toxicity studies of both cypermethrin and sigma-cypermethrin were conducted in the rainbow trout (Oncorhynchus mykiss) and in the sheepshead minnow (Cyprinodon variagatus) to determine the median-lethal-concentration (LC50) resulting from continuous exposure. For the rainbow trout the exposure medium was well water; for the sheepshead minnow, filtered seawater. Each group of 20 fish (10 per replicate aquarium) was exposed either to one of five concentrations of pyrethroid delivered in a diluter system in dimethylformamide (DMF), to 30 μL/L DMF in the exposure medium (solvent control), or to the exposure medium alone (control). Observations for mortality, morbidity, and other overt signs of toxicity were determined at prescribed intervals. Concentrations of the test materials were measured at the beginning and end of the exposure using a validated HPLC method. The cypermethrin isomer content (weight %) of the sigma-cypermethrin technical product used in this study was total isomers--88.2%, S-isomers--82%, cis/trans ratio--53/47.

rats [6] = test: 90-day feeding study; type: in vivo; settings: for no observable effect level (NOEL): in diet, at least ninety days
Protocol: In the 90-day feeding study, conducted in compliance with EPA guideline 82-1, the compound under test was administered continuously in the diet to groups of rats for at least ninety days at concentrations of 0, 150, and 1500 ppm to groups of fifteen Sprague-Dawley rats for cypermethrin and 0, 10, 50, 150, 250, 500, and 900 ppm to groups of ten Fisher 344 rats for sigma-cypermethrin. (The rates for sigma-cypermethrin were lower, because it was expected to be more toxic than cypermethrin.) The cypermethrin isomer content (weight %) of the sigma-cypermethrin technical product used in this study was total isomers--88.2%, S-isomers--82%, cis/trans ratio--53/47. Individual body weight and food consumption values were recorded weekly. At termination, hematology and clinical chemistry determinations were conducted and organ weights were obtained for adrenals, brain, heart, kidneys, liver, and ovaries or testes. Histopathological examination of approximately 40 tissues was conducted on all animals in the control group and in the highest dose group in the cypermethrin study and in the highest two groups (500 and 900 ppm) in the sigma-cypermethrin study. In addition, histopathological examination was performed on the lungs, liver, and kidneys of animals in the mid-dose groups of both studies ([…] and 10, 50, 150, and 250 ppm for sigma-cypermethrin). An ophthalmic examination was conducted on all animals prior to initiation of treatment and prior to final sacrifice.

[7] = test system: tobacco budworm strain resistant to pyrethroids; test: Foliar evaluation, pyrethroid-resistant tobacco budworm (TBW-R); type: in vivo, Heliothis virescens; settings: for LC50: Heliothis virescens, foliar, pinto beans, mortality at 48 hours
Protocol: as §1, §2

[8] = test system: corn earworm (Heliothis zea); test: Foliar evaluation, corn earworm (CEW); type: in vivo; settings: for LC50: Helicoverpa zea, foliar, pinto beans, mortality at 48 hours
Protocol: as §1, §2

CC1(C)C(C=C(Cl)Cl)C1C(=O)O[C@H](C#N)c1cccc(Oc2ccccc2)c1 (mixture of isomers) [sigma-cypermethrin, (S)(cyano)(3-phenoxyphenyl)methyl cis/trans-3-(2,2-dichloroethenyl)-2,2-dimethylcyclopropanecarboxylate]
LC50 [1]: 0.3 mg/L | effectiveness relative to cypermethrin ([1]; the only Coleoptera tested, laboratory): four times as effective | Relative Potency ([1]; vs cypermethrin, MBB): 4.0 | LC50 [2]: 4.4 mg/L | Relative Potency ([2]; vs cypermethrin, TBW): 1.7 | % Alfalfa Weevil Control ([3]; Year 1, 0.022 lb ai/A, 3 DAT, average of 4 trials): 96% | % Alfalfa Weevil Control ([3]; Year 1, 0.022 lb ai/A, 7 DAT, average of 4 trials): 94% | % Alfalfa Weevil Control ([3]; Year 1, 0.022 lb ai/A, 14 DAT, average of 4 trials): 96% | % Alfalfa Weevil Control ([3]; Year 2, 0.01 lb ai/A, 3 DAT, average of 6 trials): 93% | % Alfalfa Weevil Control ([3]; Year 2, 0.01 lb ai/A, 7 DAT, average of 6 trials): 93% | % Alfalfa Weevil Control ([3]; Year 2, 0.01 lb ai/A, 14 DAT, average of 6 trials): 85% | % Alfalfa Weevil Control ([3]; Year 2, 0.015 lb ai/A, 3 DAT, average of 6 trials): 94% | % Alfalfa Weevil Control ([3]; Year 2, 0.015 lb ai/A, 7 DAT, average of 6 trials): 97% | % Alfalfa Weevil Control ([3]; Year 2, 0.015 lb ai/A, 14 DAT, average of 6 trials): 94% | % Alfalfa Weevil Control ([3]; Year 2, 0.022 lb ai/A, 3 DAT, average of 6 trials): 94% | % Alfalfa Weevil Control ([3]; Year 2, 0.022 lb ai/A, 7 DAT, average of 6 trials): 96% | % Alfalfa Weevil Control ([3]; Year 2, 0.022 lb ai/A, 14 DAT, average of 6 trials): 94% | mortality of F1 generation litters (rats [4]; 750 ppm in diet, 28-day lactation and first week postweaning): excessive mortality | NOEL relative to that of cypermethrin (rats [4]; multigeneration): twice that of cypermethrin | amount required to show an effect on rats relative to that expected from effect on insects (rats [4]; multigeneration): four times | % Cabbage Looper Control (cabbage looper; Year 1, 0.026 lb ai/A, 3 DAT, average of 2 trials (CA)): 83% | % Cabbage Looper Control (cabbage looper; Year 1, 0.026 lb ai/A, 7 DAT, average of 2 trials (CA)): 90% | % Cabbage Looper Control (cabbage looper; Year 2, 0.013 lb ai/A, 3 DAT, 1 trial (CA)): 98% | % Cabbage Looper Control (cabbage looper; Year 2, 0.013 lb ai/A, 7 DAT, 1 trial (CA)): 71% | % Cabbage Looper Control (cabbage looper; Year 2, 0.026 lb ai/A, 3 DAT, 1 trial (CA)): 98% | % Cabbage Looper Control (cabbage looper; Year 2, 0.026 lb ai/A, 7 DAT, 1 trial (CA)): 91% | % Cabbage Looper Control (cabbage looper; Year 2, 0.039 lb ai/A, 3 DAT, 1 trial (CA)): 100% | % Cabbage Looper Control (cabbage looper; Year 2, 0.039 lb ai/A, 7 DAT, 1 trial (CA)): 98% | LC50 at 96 h [5]: 0.00069 mg/L | amount required to show an effect on rats relative to that expected from effect on insects (rats [6]; 90-day feeding): more than three times | NOEL relative to the cypermethrin value (rats [6]; 90-day feeding, rats): more than one and a half times the cypermethrin value | no observable effect level (NOEL) (rats [6]): 250 ppm | LC50 [7]: 43 mg/L | Relative Potency ([7]; vs cypermethrin, TBW-R): 2.1 | LC50 [8]: 3.9 mg/L | Relative Potency ([8]; vs cypermethrin, CEW): 1.9

CC1(C)C(C=C(Cl)Cl)C1C(=O)OC(C#N)c1cccc(Oc2ccccc2)c1 (stereo not drawn) [cypermethrin, (cyano)(3-phenoxyphenyl)methyl 3-(2,2-dichloroethenyl)-2,2-dimethylcyclopropanecarboxylate, reference compound]
LC50 [1]: 1.2 mg/L (≈ 2.88 µM) | LC50 [2]: 7.3 mg/L (≈ 17.5 µM) | % Alfalfa Weevil Control ([3]; Year 2, 0.04 lb ai/A, 3 DAT, average of 6 trials): 94% | % Alfalfa Weevil Control ([3]; Year 2, 0.04 lb ai/A, 7 DAT, average of 6 trials): 96% | % Alfalfa Weevil Control ([3]; Year 2, 0.04 lb ai/A, 14 DAT, average of 6 trials): 90% | toxicity at top dose level (rats [4]; 1000 ppm in diet, first 12 weeks, lowered to 750 ppm): toxicity | NOEL (rats [4]; in diet, multiple generations): 50 ppm | % Cabbage Looper Control (cabbage looper; Year 1, 0.06 lb ai/A, 3 DAT, average of 2 trials (CA)): 61% | % Cabbage Looper Control (cabbage looper; Year 1, 0.06 lb ai/A, 7 DAT, average of 2 trials (CA)): 78% | % Cabbage Looper Control (cabbage looper; Year 2, 0.06 lb ai/A, 3 DAT, 1 trial (CA)): 94% | % Cabbage Looper Control (cabbage looper; Year 2, 0.06 lb ai/A, 7 DAT, 1 trial (CA)): 81% | LC50 at 96 h [5]: 0.000897 mg/L (≈ 0.00215 µM) | no observable effect level (NOEL) (rats [6]): 150 ppm | LC50 [7]: 92 mg/L (≈ 221 µM) | LC50 [8]: 7.3 mg/L (≈ 17.5 µM)
